Results as given in US7026339B2, “Inhibitors of HCV NS5B polymerase” (priority 2003, dated 2006).

The compounds below were run on HuH-7 replicon cells 5–15 and 9–13 (HCV replication) (assay: Inhibition of viral replication in HuH-7 replicon cells (HCV RNA / GAPDH RNA by multiplex RT-PCR)). Settings: Hepatitis C virus, 72 h; inhibiting 50% of replication; HuH-7 replicon cells, 3 days; read-out: IC50.
Format: cell-based
How it was run: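 Replicon cells seeded at 7×10^3 cells/well, grown 24 h, then exposed 3 days at 37 °C to compound at final 100 μM–1 μM (1% DMSO). Multiplex TaqMan RT-PCR on total RNA quantified HCV 5′-UTR and GAPDH RNA against a standard curve; HCV/GAPDH ratio reported as percent of untreated control.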

Compound | IC50 [µM]
Cc1ccc(C)c(S(=O)(=O)Oc2ccccc2/C=N/NC(=O)Cc2ccccc2)c1 [Compound 130, 2-{(E)-[2-(2-phenylacetyl)hydrazono]methyl}phenyl2,5-dimethylbenzenesulfonate] | > 50
COc1ccc(S(=O)(=O)Oc2ccccc2/C=N/NC(=O)Cc2ccccc2)cc1 [Compound 131, 2-{(E)-[2-(2-phenylacetyl)hydrazono]methyl}phenyl 4-methoxybenzenesulfonate] | < 5
O=C(Cc1ccccc1)N/N=C/c1ccccc1OS(=O)(=O)c1ccccc1Cl [Compound 132, 2-{(E)-[2-(2-phenylacetyl)hydrazono]methyl}phenyl 2-chlorobenzenesulfonate] | > 50
O=C(Cc1ccccc1)N/N=C/c1ccccc1OS(=O)(=O)c1ccc(F)cc1F [Compound 133, 2-{(E)-[2-(2-phenylacetyl)hydrazono]methyl}phenyl2,4-difluorobenzenesulfonate] | > 50
CCCc1ccc(S(=O)(=O)Oc2ccccc2/C=N/NC(=O)Cc2ccccc2)cc1 [Compound 134, 2-{(E)-[2-(2-phenylacetyl)hydrazono]methyl}phenyl 4-propylbenzenesulfonate] | < 5
CC(C)c1ccc(S(=O)(=O)Oc2ccccc2/C=N/NC(=O)Cc2ccccc2)cc1 [Compound 135, 2-{(E)-[2-(2-phenylacetyl)hydrazono]methyl}phenyl 4-isopropylbenzenesulfonate] | < 5
O=C(Cc1ccccc1)N/N=C/c1ccccc1OS(=O)(=O)c1cccc2ccccc12 [Compound 136, 2-{(E)-[2-(2-phenylacetyl)hydrazono]methyl}phenylnaphthalene-1-sulfonate] | > 50
O=C(Cc1ccccc1)N/N=C/c1ccccc1OS(=O)(=O)c1ccc(F)cc1Cl [Compound 137, 2-{(E)-[2-(2-phenylacetyl)hydrazono]methyl}phenyl 2-chloro-4-fluorobenzenesulfonate] | 5 to 50
COc1ccc(OC)c(S(=O)(=O)Oc2ccccc2/C=N/NC(=O)Cc2ccccc2)c1 [Compound 138, 2-{(E)-[2-(2-phenylacetyl)hydrazono]methyl}phenyl2,5-dimethoxybenzenesulfonate] | > 50
O=C(Cc1ccccc1)N/N=C/c1ccccc1OS(=O)(=O)c1cc(Cl)ccc1Cl [Compound 139, 2-{(E)-[2-(2-phenylacetyl)hydrazono]methyl}phenyl2,5-dichlorobenzenesulfonate] | > 50
O=C(Cc1ccccc1)N/N=C/c1ccccc1OS(=O)(=O)c1ccccc1Br [Compound 140, 2-{(E)-[2-(2-phenylacetyl)hydrazono]methyl}phenyl 2-bromobenzenesulfonate] | > 50
O=C(Cc1ccccc1)N/N=C/c1ccccc1OS(=O)(=O)c1ccccc1OC(F)(F)F [Compound 141, 2-{(E)-[2-(2-phenylacetyl)hydrazono]methyl}phenyl 2-(trifluoromethoxy)benzenesulfonate] | > 50
O=C(Cc1ccccc1)N/N=C/c1ccccc1OS(=O)(=O)c1ccc(OC(F)(F)F)cc1 [Compound 142, 2-{(E)-[2-(2-phenylacetyl)hydrazono]methyl}phenyl 4-(trifluoromethoxy)benzenesulfonate] | < 5
COc1cccc(S(=O)(=O)Oc2ccccc2/C=N/NC(=O)Cc2ccccc2)c1 [Compound 143, 2-{(E)-[2-(2-phenylacetyl)hydrazono]methyl}phenyl 3-methoxybenzenesulfonate] | 5 to 50
O=C(Cc1ccccc1)N/N=C/c1ccccc1OS(=O)(=O)c1ccc(-c2ccccc2)cc1 [Compound 144, 2-{(E)-[2-(2-phenylacetyl)hydrazono]methyl}phenyl1,1′-biphenyl-4-sulfonate] | > 50
COc1cccc(CC(=O)N/N=C/c2ccccc2OS(=O)(=O)c2ccc(C)cc2)c1 [Compound 145, 2-((E)-{2-[2-(3-methoxyphenyl)acetyl]hydrazono}methyl)-phenyl 4-methylbenzenesulfonate] | < 5
COc1cccc(CC(=O)N/N=C/c2ccccc2OS(=O)(=O)c2ccc(C(F)(F)F)cc2)c1 [Compound 146, 2-((E)-{2-[2-(3-methoxyphenyl)acetyl]hydrazono}methyl)-phenyl 4-(trifluoromethyl)benzenesulfonate] | < 5
Cc1ccc(S(=O)(=O)Oc2ccccc2/C=N/NC(=O)Cc2cccc(Cl)c2)cc1 [Compound 147, 2-((E)-{2-[2-(3-chlorophenyl)acetyl]hydrazono}methyl)-phenyl 4-methylbenzenesulfonate] | < 5
O=C(Cc1cccc(Cl)c1)N/N=C/c1ccccc1OS(=O)(=O)c1ccc(C(F)(F)F)cc1 [Compound 148, 2-((E)-{2-[2-(3-chlorophenyl)acetyl]hydrazono}methyl)-phenyl 4-(trifluoromethyl)benzenesulfonate] | < 5

Compound | IC50 [µM]
COc1ccc(CC(=O)N/N=C/c2ccccc2OS(=O)(=O)c2ccc(C)cc2)cc1OC [Compound 149, 2-((E)-{2-[2-(3,4-dimethoxyphenyl)acetyl]hydrazono}methyl)-phenyl 4-methylbenzenesulfonate] | < 5
COc1ccc(CC(=O)N/N=C/c2ccccc2OS(=O)(=O)c2ccc(C(F)(F)F)cc2)cc1OC [Compound 150, 2-((E)-{2-[2-(3,4-dimethoxyphenyl)acetyl]hydrazono}methyl)-phenyl 4-(trifluoromethyl)benzenesulfonate] | < 5
COc1ccc(S(=O)(=O)Oc2ccccc2/C=N/NC(=O)Cc2cccc(OC)c2)cc1 [Compound 151, 2-((E)-{2-[2-(3-methoxyphenyl)acetyl]hydrazono}methyl)-phenyl 4-methoxybenzenesulfonate] | < 5
COc1cccc(CC(=O)N/N=C/c2ccccc2OS(=O)(=O)c2ccc(OC)c(OC)c2)c1 [Compound 152, 2-((E)-{2-[2-(3-methoxyphenyl)acetyl]hydrazono}methyl)-phenyl 3,4-dimethoxybenzenesulfonate] | < 5
COc1cccc(CC(=O)N/N=C/c2ccccc2OS(=O)(=O)c2cc(OC)ccc2OC)c1 [Compound 153, 2-((E)-{2-[2-(3-methoxyphenyl)acetyl]hydrazono}methyl)-phenyl 2,5-dimethoxybenzenesulfonate] | < 5
COc1cccc(CC(=O)N/N=C/c2ccccc2OS(=O)(=O)c2ccc(OC)cc2OC)c1 [Compound 154, 2-((E)-{2-[2-(3-methoxyphenyl)acetyl]hydrazono}methyl)-phenyl 2,4-dimethoxybenzenesulfonate] | < 5
COc1cccc(CC(=O)N/N=C/c2cc(Cl)ccc2OS(=O)(=O)c2ccc(C)cc2)c1 [Compound 155, 4-chloro-2-((E)-{[(3-methoxyphenyl)acetyl]hydrazono}methyl)-phenyl 4-methylbenzenesulfonate] | < 5
COc1cccc(CC(=O)N/N=C/c2cc(OC)ccc2OS(=O)(=O)c2ccc(C)cc2)c1 [Compound 156, 4-methoxy-2-((E)-{[(3-methoxyphenyl)acetyl]hydrazono}methyl)-phenyl 4-methylbenzenesulfonate] | < 5
COc1cccc(CC(=O)N/N=C/c2cc(C)ccc2OS(=O)(=O)c2ccc(C)cc2)c1 [Compound 157, 2-((E)-{[(3-methoxyphenyl)acetyl]hydrazono}methyl)-4-methylphenyl 4-methylbenzenesulfonate] | < 5
COc1cccc(CC(=O)N/N=C/c2cc(F)ccc2OS(=O)(=O)c2ccc(C)cc2)c1 [Compound 158, 4-fluoro-2-((E)-{[(3-methoxyphenyl)acetyl]hydrazono}methyl)-phenyl 4-methylbenzenesulfonate] | < 5
COc1cccc(CC(=O)N/N=C/c2cccc(F)c2OS(=O)(=O)c2ccc(C)cc2)c1 [Compound 159] | 5 to 50
COc1cccc(CC(=O)N/N=C/c2cccc(OC)c2OS(=O)(=O)c2ccc(C)cc2)c1 [Compound 160, 2-methoxy-6-((E)-{[(3-methoxyphenyl)acetyl]hydrazono}methyl)-phenyl 4-methylbenzenesulfonate] | 5 to 50
CCOc1cccc(/C=N/NC(=O)Cc2cccc(OC)c2)c1OS(=O)(=O)c1ccc(C)cc1 [Compound 161, 2-ethoxy-6-((E)-{[(3-methoxyphenyl)acetyl]hydrazono}methyl)-phenyl 4-methylbenzenesulfonate] | 5 to 50
COc1cccc(CC(=O)N/N=C/c2c(OS(=O)(=O)c3ccc(C)cc3)ccc3ccccc23)c1 [Compound 162, 1-((E)-{2-[2-(3-methoxyphenyl)acetyl]hydrazono}methyl)-2-naphthyl 4-methylbenzenesulfonate] | 5 to 50
COc1cccc(CC(=O)N/N=C/c2cccc(C)c2OS(=O)(=O)c2ccc(C)cc2)c1 [Compound 163, 2-((E)-{[(3-methoxyphenyl)acetyl]hydrazono}methyl)-6-methylphenyl 4-methylbenzenesulfonate] | < 5
Cc1ccc(S(=O)(=O)Oc2ccc(F)cc2/C=N/NC(=O)Cc2cccc(Cl)c2)cc1 [Compound 164, 2-((E)-{[(3-chlorophenyl)acetyl]-hydrazono}methyl)-4-fluorophenyl 4-methylbenzenesulfonate] | < 5
COc1cccc(CC(=O)N/N=C/c2cccc(OC)c2OS(=O)(=O)c2ccc(C(F)(F)F)cc2)c1 [Compound 165, 2-methoxy-6-((E)-{[(3-methoxyphenyl)acetyl]hydrazono}methyl)-phenyl 4-(trifluoromethyl)-benzenesulfonate] | < 5
COc1cccc(CC(=O)N/N=C/c2cc(Br)ccc2OS(=O)(=O)c2ccc(C(F)(F)F)cc2)c1 [Compound 166] | < 5
COc1cccc(CC(=O)N/N=C/c2cccc(C)c2OS(=O)(=O)c2ccc(C(F)(F)F)cc2)c1 [Compound 168, 2-((E)-{[(3-methoxyphenyl)acetyl]hydrazono}methyl)-6-methylphenyl 4-(trifluoromethyl)benzenesulfonate] | < 5
